Assay results taken from patent publication US9861625B2, “Methods and compositions for treating cancer through inhibition of PI3K” (Duke University, priority 2014, dated 2018).

System: 21 established DLBCL cell lines
Test: MTT viability assay of DLBCL cell lines with and without MTOR mutations
Assay type: cell-based
Conditions: on average; FIG. 1G
Experimental: Lymphoma cell lines were cultured with RPMI1640 media supplemented with 10% v/v Fetal Bovine Serum (FBS) and 1% v/v Penicillin/Streptomycin supplied at 10,000 U penicillin and 10 mg streptomycin/ml (BJAB, Farage, Karpas422, Pfieffer, RL, SCI 1, SKI, Toledo, U2932, WSU_NHL, HT), or RPMI1640 supplemented with 15% v/v FBS and 1% v/v P/S (RCK8, SUDH4, SUDHL7), Iscove's modified Dulbecco's medium (IMDM) supplemented with 20% v/v human plasma and 1% P/S ([…]), or alpha-MEM media supplemented with 10% FBS and 1% P/S (TMD8). Cells were grown in a 5% CO2 environment at 37° C.
The effect the PI3K inhibitor drug BKM120 (Novartis) on lymphoma cell lines was assayed on 96-well format using MTT viability assays. 40,000 cells were grown in drug at 10 concentrations: 25 μM, and nine serial 1:2 dilutions down to 0.05 μM. For each condition tested, there were five technical replicates. Two controls were included: media only and drug-free cells. If the IC50 was not reached within this drug concentration range, the experiment was repeated with an additional drug concentration of […]. […] 100 μl of MTT detergent solution was added, and color was developed in the dark at room temperature overnight, after which 570 nm absorbance was measured. After normalization to control wells, the IC50 values were calculated. […]

SMILES: Nc1cc(C(F)(F)F)c(-c2cc(N3CCOCC3)nc(N3CCOCC3)n2)cn1 [BKM120]
- sensitivity of cell lines with MTOR mutations (HT, Ly1, SUDHL7) versus the other 18 cell lines: fivefold higher sensitivity
